In publication PMC13289148, “Assessment of the toxic effects of parabens, commonly used preservatives in cosmetics, and their halogenated by-products on human skin and endothelial cells” (NAM journal, 2025):
Entries after “also recorded” stand apart in the source; their conditions may differ.

Key:
HEK001 cells = test: Wound healing (scratch) assay, HEK001; assay type: cell-based, human; conditions: for proliferation rate in wound healing assay / proliferation rate / wound healing: 24 h; for proliferation rate / wound healing: HEK001, 100 µM
Experimental: (§1) The human epidermal keratinocytes HEK001 (CRL-2404, ATCC, Manassas, VA) were maintained in a keratinocyte-serum-free medium supplemented with 5 ng/mL human recombinant EGF. The cells were incubated under 5 % CO2 and a 95 % humidified atmosphere at 37 °C ([Bogen et al., 2017]). HMEC-1 cells (CRL-3243, ATCC) were cultured at 37 °C in a 5 % CO2 humidified atmosphere using MCDB-131 medium supplemented with 10 % fetal bovine serum, 1 % penicillin/streptomycin, 10 mM l-glutamine, 1 μg/mL hydrocortisone, and 10 ng/mL EGF supplement.
(§2) The experiments were performed with biological (96 well plates) and technical (wells) replicates. Four to five biological replicates with four technical replicates were used to determine cytotoxicity. Ten paraben concentrations were assessed, ranging from a low human serum-relevant concentration (1 pM) to a high non-human-relevant concentration (1 mM). A solvent control of 0.6 % DMSO and a positive control of 5 % DMSO were also used. Three representative concentrations were chosen for each cell line for the wound-healing assay. Those concentrations were 1 µM, 10 µM, and 100 µM. Upon dosing, plates were returned to the incubator for a 24-hour exposure period.
(§3) As described by [Grada et al. (2017)] and [Yarrow et al. (2004)], a wound-healing assay was used to evaluate the proliferation rate of a disrupted cell monolayer. Cells were seeded at 200,000 cells/mL in 48-well plates and allowed to stabilize, reaching 90–100 % confluency within 24–72 h. Once confluent, the growth media was removed, and a scratch was created in the cell monolayer using a pipette tip. Manual disruption of the cell monolayer was chosen over the use of inserts or automated scratching devices to design experiments that are cost-effective and accessible to laboratories with limited budgets. This approach provides greater flexibility in experimental design without reliance on specialized equipment, making it a practical solution for resource-constrained settings. Additionally, the manual scratch method may better simulate real-world injury scenarios. To minimize variability, consistent pipette tip sizes were employed, experiments were performed in multiple replicates, and immediate visual inspections were conducted to ensure reproducibility and uniformity across trials. The exposure media was then applied, and cytochalasin D ([…]) was used as a positive control to inhibit wound healing by suppressing cell division via […]. Cells were incubated with exposure media for 24 h while kinetic high contrast brightfield (HCBF) images were captured every 30 min using the Lionheart FX automated microscope (Biotek, Agilent). Gen5 software analyzed the scratch area over time, measuring the reduction in cell-free area as migration occurred. All data were normalized to the solvent control for consistency.

[1] = MTT cytotoxicity assay, HMEC-1 endothelial cells; assay type: cell-based; conditions: human, HMEC-1 dermal microvascular endothelial cells, read-out: EC50 from cytotoxicity assay, HMEC-1
Experimental: as §1, §2
(§4) Cell viability was assessed using the MTT assay [3-(4,5-dimethylthiazol-2-yl)−2,5-diphenyltetrazolium bromide] ([Solan et al., 2022]). After 24 h of exposure, a 20 % tetrazolium dye solution was added to the cells. The NAD(P)H-dependent oxidoreductase enzymes in viable cells reduced the tetrazolium dye, producing insoluble formazan crystals visible as a purple coloration, indicative of active cellular respiration. Following the incubation period, the media was carefully removed, leaving the formazan crystals behind. To dissolve these crystals, a 1:1 solution of ethanol and DMSO was added to the plate. Absorbance was then measured at 595 nm on a spectrophotometer to quantify the extent of formazan formation (BioTek SynergyTM H1, Winooski, VT).
(§5) A 24-hour exposure period was selected to evaluate the acute toxicity of parabens on HEK001 and HMEC-1 cell lines. […] Assessing the acute effects on these less-characterized cell lines is critical for enabling meaningful comparisons across models. Additionally, acute toxicity studies minimize confounding factors such as nutrient depletion and cell overgrowth, facilitating higher-throughput screening.

[2] = system: HEK001 cells (human epidermal keratinocytes); test: MTT cytotoxicity assay, HEK001 keratinocytes; assay type: cell-based; conditions: for EC50: 24 h exposure, MTT, HEK001 keratinocytes, average ± standard deviation, read-out: EC50 from cytotoxicity assay, HEK001; for cytotoxic response at high concentration: HEK001, 100 µM, proliferation could not be observed
Experimental: as §1, §2, §4, §5

[3] = MTT cytotoxicity assay, HEK001 keratinocytes; assay type: cell-based, human; conditions: human, HEK001 epidermal keratinocytes, 24 h exposure, MTT, HEK001 keratinocytes; average ± standard deviation; read-out: EC50 from cytotoxicity assay, HEK001
Experimental: as §1, §2, §4, §5

HMEC-1 cells = test: Wound healing (scratch) assay, HMEC-1; assay type: cell-based, human; conditions: for sensitivity at high concentration / proliferation rate / wound healing / proliferation rate relative to baseline / untreated control: HMEC-1, 100 µM; for proliferation rate in wound healing assay: HMEC-1, 1–10 µM; for proliferation rate in wound healing assay / proliferation rate / wound healing / proliferation rate relative to baseline / untreated control: 24 h
Experimental: as §1, §2, §3

HepG2 cells [4] = system: HepG2 cells; design: method as in Kizhedath et al., 2019; conditions: 125 µM, ref Kizhedath et al., 2019; cited from earlier work
HepG2 cells [5] = system: HepG2 cells; design: method as in Khanal et al., 2012; conditions: 125 µM, HepG2, compared to HBA, MeP, and PrP; ref Khanal et al., 2012; cited from earlier work
HDFn cells = system: HDFn cells; design: method as in Kizhedath et al., 2019; conditions: 125 µM, ref Kizhedath et al., 2019; cited from earlier work
red blood cells (RBCs) = system: red blood cells (RBCs); design: method as in Ko et al. (2023); conditions: ref Ko et al. (2023), cited from earlier work
HaCaT keratinocytes = system: HaCaT keratinocytes; design: method as in Couch, 2024; Kinney, 2022; conditions: 200 µM, ref Couch, 2024, Kinney, 2022; cited from earlier work
M624 melanoma cells = system: M624 melanoma cells; design: method as in Couch, 2024; Kinney, 2022; conditions: 200 µM, ref Couch, 2024, Kinney, 2022; cited from earlier work
[6] = HEK001, 1 µM, versus solvent control
[7] = HEK001, 10 µM, versus solvent control
[8] = 24 h exposure, MTT, HMEC-1 endothelial cells, average ± standard deviation

Compound | proliferation rate in wound healing assay (HEK001 cells; [6]) | EC50 at 24 h [1, 8] [µM] | EC50 [2] [µM] | cytotoxic response at high concentration [2] | EC50 at 24 h [3] [µM] | sensitivity at high concentration (HMEC-1 cells) | proliferation rate in wound healing assay (HMEC-1 cells) | proliferation rate relative to baseline / untreated control (HMEC-1 cells) | proliferation rate / wound healing (HEK001 cells; versus solvent control) | further results
O=C(OCc1ccccc1)c1ccc(O)cc1 [BeP, benzylparaben] | lower proliferation rates compared to the solvent control | 25.6 ± 3.9 | 3.3 ± 1 | acutely lethal responses | 3.34 ± 0.97 | too sensitive to conduct proliferation assays | proliferation rates comparable to those observed in untreated controls | – | – | proliferation rate in wound healing assay (HEK001 cells; [7]): proliferation significantly decreased; also recorded: lower proliferation rates compared to the solvent control
CCCCOC(=O)c1ccc(O)cc1 [BuP, butylparaben] | lower proliferation rates compared to the solvent control | 75.8 ± 13.4 | 1.5 ± 0.51 | acutely lethal responses | 1.52 ± 0.51 | too sensitive to conduct proliferation assays | proliferation rates comparable to those observed in untreated controls | – | – | cell cycle (HepG2 cells [4]): cell cycle arrest in the G1 phase; percentage of apoptotic cells (HepG2 cells [5]): higher percentage of apoptotic cells; proliferation rate in wound healing assay (HEK001 cells; [7]): proliferation significantly decreased; also recorded: lower proliferation rates compared to the solvent control; cell cycle (HDFn cells): cell cycle arrest in the G1 phase; hemolysis of RBCs (red blood cells (RBCs); 500 µM): increased hemolysis; extracellular phosphatidylserine of RBCs (red blood cells (RBCs); only BuP among MeP, EtP, PrP, BuP, HBA): increase in extracellular phosphatidylserine
COC(=O)c1ccc(O)c(Cl)c1 [CMeP, methyl 3‑chloro-4-hydroxybenzoate] | – | 788 ± 139 | – | significant cell death | 2.2 ± 0.8 | – | proliferation rates comparable to those observed in untreated controls; also recorded: no significant changes in proliferation | 20–30% | – | proliferation rate in wound healing assay (HEK001 cells; HEK001, 1–10 µM): decrease in proliferation; proliferation rate / wound healing (HMEC-1 cells): reduction
COC(=O)c1cc(Br)c(O)c(Br)c1 [DBMeP, methyl 3,5-dibromo-4-hydroxybenzoate] | initially reduced proliferation | 489 ± 86.4 | 1.5 ± 0.4 | – | 1.49 ± 0.37 | – | – | 20–30% | dose-dependent increase in proliferation | proliferation in wound healing assay (HEK001 cells; HEK001, concentrations higher than 1 µM): dose-dependent increase in proliferation; proliferation in wound healing assay (HMEC-1 cells; HMEC-1, concentration not stated, high variability): reduction in proliferation
COC(=O)c1cc(Cl)c(O)c(Cl)c1 [DCMeP, methyl 3,5-dichloro-4-hydroxybenzoate] | – | > 10000 | – | significant cell death | 54.5 ± 17.8 | – | no significant changes in proliferation | 20–30% | – | proliferation rate in wound healing assay (HEK001 cells; HEK001, 1–10 µM): decrease in proliferation; proliferation rate / wound healing (HMEC-1 cells): reduction
CCOC(=O)c1ccc(O)cc1 [EtP, ethylparaben] | – | 171 ± 77.9 | – | – | 536 ± 178 | – | proliferation rates comparable to those observed in untreated controls | 20–30% | substantial decrease in proliferation rates | –
O=C(O)c1ccc(O)cc1 [HBA, 4-hydroxybenzoic acid] | – | > 10000 | – | – | 696 ± 245 | – | – | – | – | –
COC(=O)c1ccc(O)cc1 [MeP, Methyl 4-hydroxybenzoate] | – | – | – | – | 1310 ± 464 | – | proliferation rates comparable to those observed in untreated controls | 160% | substantial decrease in proliferation rates | EC50 at 24 h [1]: 1090 ± 618 µM
CCCOC(=O)c1ccc(O)cc1 [PrP, propylparaben] | – | 102 ± 18 | – | acutely lethal responses | 17 ± 9.9 | too sensitive to conduct proliferation assays | proliferation rates comparable to those observed in untreated controls | – | – | –
CCCCCCCOC(=O)c1ccc(O)cc1 [heptylparaben] | – | – | – | – | – | – | – | – | – | cell viability, cytochrome C levels, caspase 3 (HaCaT keratinocytes): significantly reduced cell viability, increased cytochrome C levels, and activated caspase 3; cell viability, cytochrome C levels, caspase 3 (M624 melanoma cells): significantly reduced cell viability, increased cytochrome C levels, and activated caspase 3
